Assay [1] has as its system ob/ob mice. As to the kind of experiment: Intranasal (IN) efficacy: food intake in fasted ob/ob mice. The format is in vivo. The settings on record: Mus musculus, inhaled or nasal, 4 hour, read-out: % Food Intake Reduction at 4 hour. How it is done:
Subjects: ob/ob mice; approximately 10 weeks old males; body weight 50-60 grams.
The mice were divided into the following groups:
1) Mice received only vehicle. The vehicle was one of the following: water, 10 mM phosphate buffer, 5% captisol in 10 mM phosphate buffer (see Table 1 for details).
2) Mice received a compound of an embodiment of the present invention at a dosage of 1 mg/kg.
3) Mice received a compound of an embodiment of the present invention at a dosage of 3 mg/kg.
4) Mice received a compound of an embodiment of the present invention at a dosage of 6 mg/kg. n=6-8 animals per group
Note: For compound 1 and compound 2, the 1 mg/kg group was not included.
Animals were fasted overnight (˜16 hours), and an MC4-R agonist compound as described in Tables 1-3 was administered at 8:30 am next day. The administration volume was […]/50 grams of body weight. The animal was gently held by one hand, and the compound solution was delivered by the other hand using a pipette with fine tips. The rate of delivery was such that the full amount was given in not less than 60 seconds to ensure maximal absorption. Pre-weighed food was given to the animals immediately after dosing, and animals had free access to water throughout the study. Food weighing was performed at 1, 2, 3, 4, and 6 hours after dosing. On occasion, food weighing was also taken at the 8 hour or 24 hour time point. Animals were euthanized using carbon dioxide followed by cervical dislocation at the end of the experiment.
Mice were fasted overnight. At 8:30 am the next morning, they were dosed with 25 μl of vehicle or compound solution by intranasal delivery. The solution was delivered using a pipette with protein loading tips. The rate of delivery was such that the full amount was given in not less than 60 seconds. Mice were fed with pre-weighed food immediately after dosing, and had access to water the entire time. Food weight was measured at 1, 2, 3, 4, 6, and 8 hours following the dosing. Mice were euthanized at the end of the study using CO2 followed by cervical dislocation.

The subject of assay [2] is ob/ob mice. The description is as above. The class given is in vivo. To be noted: Mus musculus, inhaled or nasal, 4 hour, read-out: % Food Intake Reduction at 4 hour. The source holds these as a separate data set.
The conditions of assay [3]: acute intranasal administration; ACTH4-10 1 mg, desacetyl-αMSH 1.68 mg (equimolar); cited from earlier work.
For assay [4] the following is noted: human subjects, cited from earlier work; for body fat: intranasal administration.

Ends that are not written are not given here.

Take `COc1ccc(CCNC(=O)c2ccc(N/C(=N/[C@H]3C[C@H]4C[C@@H]([C@@H]3C)C4(C)C)N3CCN[C@@H](C)C3)cc2)c(F)c1` [Compound 1]: in the assay on ob/ob mice [1], the inhibition in vivo at 3 mg/kg was 59% and the inhibition in vivo at 6 mg/kg amounted to 91.5%.
On the same counts, the results for `Cc1ccc(CCc2nc3ccc(N/C(=N\[C@H]4C[C@H]5C[C@@H]([C@@H]4C)C5(C)C)N4CCN[C@@H](C)C4)cc3[nH]2)c(C)c1` [Compound 2] are 23.7% and 1.7%.
For `COc1ccc(CCNC(=O)c2ccc(N/C(=N/[C@H]3C[C@H]4C[C@@H]([C@@H]3C)C4(C)C)N3C[C@@H](C)N[C@@H](C)C3)cc2)c(F)c1` [Compound 3], in the assay on ob/ob mice [1], the inhibition in vivo at 1 mg/kg was -3%, the inhibition in vivo at 3 mg/kg stood at 63.8% and the inhibition in vivo at 6 mg/kg came out at 70.3%.
In the case of `C[C@@H]1[C@@H](/N=C(\Nc2ccc3[nH]c(CCc4ccc(Cl)cc4Cl)nc3c2)N2CCN[C@@H](C)C2)C[C@H]2C[C@@H]1C2(C)C` [Compound 5], in the assay on ob/ob mice [1], the inhibition in vivo at 1 mg/kg was determined as 10.4%, the inhibition in vivo at 3 mg/kg came to 53.1% and the inhibition in vivo at 6 mg/kg is 67.3%.
Taken in the same sequence, the figures for `C[C@@H]1[C@@H](/N=C(\Nc2ccc(NC(=O)CCc3ccc(Cl)cc3Cl)cc2)N2CCN[C@@H](C)C2)C[C@H]2C[C@@H]1C2(C)C` [Compound 6] were -11.9%, 21.3% and 57.4%.
As to `C[C@@H]1[C@@H](/N=C(/Nc2ccc(C(=O)OCCc3ccc(Cl)cc3Cl)cc2)N2C[C@@H](C)N[C@@H](C)C2)C[C@H]2C[C@@H]1C2(C)C` [Compound 7], in the assay with ob/ob mice [1], the inhibition in vivo at 1 mg/kg worked out at 23.5%, the inhibition in vivo at 3 mg/kg is 42.7% and the inhibition in vivo at 6 mg/kg amounted to 85.5%.
On the same counts, the results for `CCOC(=O)c1ccc(N/C(=N/[C@H]2C[C@H]3C[C@@H]([C@@H]2C)C3(C)C)N2C[C@@H](C)N[C@@H](C)C2)cc1` [Compound 8] are 37.8%, 60% and 84.1%.
On the same counts, the results for `COc1ccc(CCNC(=O)c2ccc(N/C(=N/[C@H]3C[C@H]4C[C@@H]([C@@H]3C)C4(C)C)N3C[C@H](C)N[C@@H](C)C3)nc2)c(F)c1` [Compound 9] are 35.2%, 70.2% and 69.6%.
Consider `COc1ccc(CCN2CCc3cc(N/C(=N/[C@H]4C[C@H]5C[C@@H]([C@@H]4C)C5(C)C)N4CCN[C@@H](C)C4)ccc3C2=O)c(F)c1` [Compound 10], for which, in the assay with ob/ob mice [1], the inhibition in vivo at 1 mg/kg was found to be 14.2% and the inhibition in vivo at 3 mg/kg is 39.7%.
As to `C[C@@H]1[C@@H](/N=C(/Nc2ccc(C(=O)N[C@H](CO)Cc3ccc(Cl)cc3Cl)cn2)N2C[C@@H](C)N[C@@H](C)C2)C[C@H]2C[C@@H]1C2(C)C` [Compound 11], the inhibition in vivo at 0.5 mg/kg with ob/ob mice [2] was -3.8%. Besides, in the assay with ob/ob mice [1], the inhibition in vivo at 1 mg/kg was found to be 27.7% and the inhibition in vivo at 3 mg/kg is 82%.
As for `COc1ccc(CCn2cnc3cc(N/C(=N/[C@H]4C[C@H]5C[C@@H]([C@@H]4C)C5(C)C)N4CCN[C@@H](C)C4)ccc3c2=O)c(F)c1` [Compound 12], the inhibition in vivo at 0.5 mg/kg in the assay on ob/ob mice [2] was 6%. Also, in the assay with ob/ob mice [1], the inhibition in vivo at 1 mg/kg was 22.6% and the inhibition in vivo at 3 mg/kg came to 47.2%.
On to “MSH/ACTH4-10: melanocyte stimulating hormone/adrenocorticotropin4-10; behaviorally active fragment of ACTH (MEHFRWG; Corticotropin; UniProt P01189 141-147, looked up, fragment)”, for which the “processing negativity (PN) of the ERP over frontal and central cortical areas” value in assay [3] was “reduced the processing negativity”. In addition, the “plasma leptin levels and insulin levels” value in assay [4] (after intranasal administration) is “decreased”. Further, the body fat entry in assay [4] is given as “reduced body fat”.
Regarding “desacetyl-αMSH: melanocortin peptide intranasally administered in the cited studies of Fehm et al. and Smolnik et al. (SYSMEHFRWGKPV; ends and bridges not checked; UniProt P01189 138-150, looked up)”, the “processing negativity (PN) of the ERP over frontal and central cortical areas” value in assay [3] was “ineffective”. For the same compound, in assay [4], the body fat result is on record as “nonsignificant”.
